Legend:
[1] = tested on: mdx; Dysf-null; Sgcg-null mice; experiment: Once-weekly glucocorticoids in three murine models of muscle disease; type: in vivo, mouse; settings: 1 mg/kg once-weekly, contrary to daily dosing
Text: Glucocorticoid steroids are widely prescribed drugs for chronic inflammatory conditions, and their daily intake generally correlates with muscle wasting and weakness, osteoporosis, obesity and metabolic disorders. […] (Quattrocelli et al, J Clin Invest 2017; Quattrocelli et al, Am J Pathol 2017; Quattrocelli et al., JCI Insight. 2019 Dec. 19; 4(24). pii: 132402. doi: 10.1172/jci.insight.132402).

Dysf-null mice = experiment: Dosing of metabolic and endocrine biomarkers in blood, serum and tissues, Dysf-null mice, 32 weeks weekly prednisone; type: in vivo
Experimental: Animal handling and steroid regimens. Mice were housed in a pathogen-free dedicated vivarium in accordance with Institutional Animal Care and Use Committee (IACUC) guidelines. Euthanasia was performed through carbon dioxide inhalation followed by cervical dislocation and heart removal. All methods using living animals in this study were performed in ethical accordance with the American Veterinary Medical Association (AVMA) and under protocols fully approved by both the Institutional Animal Care and Use Committee (IACUC) at Northwestern University Feinberg School of Medicine (protocol number ISO00000761). Consistent with the ethical approvals, all efforts were made to minimize suffering. Mice were fed ad libitum with Mouse Breeder Sterilizable Diet (#7904; Harlan Teklad, Indianapolis, Ind.) and maintained on a 12-hour light/dark cycle. mdx mice from the DBA/2J background were obtained from the Jackson Laboratory (Bar Harbor, Me.; stock #013141) and interbred. Male mice were used for reported experiments. Age at start was approximately 6 months for short-term experiments, approximately 6 weeks for long-term experiments. Dysferlin-null (Dysf-null) mice from the 129T2/SvEmsJ background were previously characterized (Demonbreun et al., 2011; Demonbreun et al., 2014). Age at start was approximately 9 months for long-term experiments. For experiments with Dysf-null and wildtype mice, both females and males (approximately 1:1 ratio) were randomized in treatment groups. […] Dosing was based on weekly weight measurements (1 mg/kg body weight, (Sali et al., 2012)) in 100 μl total PBS volume per dose. […] On injection days, stock solutions stored at −20° C. were diluted into sterile Eppendorf tubes containing sterile phosphate buffered saline (PBS) (#14190; Thermo Fisher, Waltham, Mass.). Puromycin (cat #A1113803, Thermo Scientific, Waltham, Mass.) was administered i.p. as 0.040 μmol/body g, and tissues were snap-frozen 30 minutes after injection. Sterile BD Micro-Fine IV Insulin Syringes (#14-829-1A; Fisher Scientific, Waltham, Mass.) were used to inject the intraperitoneal cavity of non-sedated animals. All animal analyses both during treatment and at endpoint were conducted blinded to treatment groups.
Dosing of metabolic and endocrine biomarkers. Glycogen was quantitated using the Glycogen Assay Kit (#ab65620; Abcam, Cambridge, Mass.) from approximately 25 mg frozen-pulverized whole tissue, following manufacturer's instructions and internal standards for calculating μg/mg values. For measurement of whole-tissue ATP/NAD^+ levels, approximately 25 mg frozen-pulverized tissue was extracted in 10% perchloric acid and neutralized in 0.75 M K2CO3, as previously described (Ramsey et al., 2009). NAD+ and ATP were measured by high-pressure liquid chromatography (HPLC) with Shimadzu LC-20A pump (Shimadzu Scientific Instr Inc, Addison, Ill.) and UV-VIS detector, using a Supelco LC-18-T column (15 cm×[…]; #58970-U; Millipore-Sigma, St Louis, Mo.). […] Corticosterone was measured in mouse serum and cortisol was measured in human serum using dedicated ELISA kits (#ADI-900-097, Enzo Life Science, Farmingdale, N.Y.; #K7430-100, BioVision, Milpitas, Calif.) according to manufacturer's instructions and internal standards to calculate ng/ml values. Insulin levels were quantitated in mouse and human serum with species-specific ELISA kits (#10-1247-01 (mouse-specific); #10-1113-01 (human-specific); Mercodia, Uppsala, Sweden), following manufacturer's instructions and internal standards to calculate ng/ml values. Free fatty acids were quantitated using Enzychrom Free Fatty Acid Assay kit (#EFFA-100; BioAssay Systems, Hayward, Calif.), following kit's instructions and standards to calculate μM (serum) and nmol/mg (tissue) values.

[2] = weekly prednisone, mean ± s.e.m

C[C@]12C=CC(=O)C=C1CC[C@@H]1[C@@H]2C(=O)C[C@@]2(C)[C@H]1CC[C@]2(O)C(=O)CO [prednisone, Prednisone]
muscle force and mass [1]: improved | BCAA utilization in muscle (Dysf-null mice; weekly prednisone): improved | endpoint levels of ATP, NAD+, and glycogen in muscle and heart (Dysf-null mice; weekly prednisone): increased | fasting glycemia (Dysf-null mice; weekly prednisone 1 mg/kg i.p., mean ± s.e.m): 109 ± 3.17 mg/dL | resting lactate (Dysf-null mice; [2]): 3.36 ± 0.21 mM | serum BCAA (Dysf-null mice; [2]): 419 ± 9.95 µM | serum corticosterone (Dysf-null mice; [2]): 143 ± 5.2 ng/mL | serum creatine kinase (Dysf-null mice; [2]): 1.31 ± 0.04 U/ml | serum free fatty acids (Dysf-null mice; [2]): 475 ± 9.18 µM | serum β-hydroxybutyrate (Dysf-null mice; [2]): 323 ± 9.61 µM | tissue BCAA, diaphragm (Dysf-null mice; [2]): 45.4 ± 1.06 nmol/mg | tissue BCAA, heart (Dysf-null mice; [2]): 0.91 ± 0.03 nmol/mg | tissue BCAA, omental fat (Dysf-null mice; [2]): 24.5 ± 0.8 nmol/mg | tissue BCAA, quadriceps (Dysf-null mice; [2]): 90.9 ± 2.58 nmol/mg | tissue free fatty acids, diaphragm (Dysf-null mice; [2]): 0.753 ± 0.07 nmol/mg | tissue free fatty acids, heart (Dysf-null mice; [2]): 0.438 ± 0.05 nmol/mg | tissue free fatty acids, omental fat (Dysf-null mice; [2]): 3.49 ± 0.38 nmol/mg | tissue free fatty acids, quadriceps (Dysf-null mice; [2]): 1.05 ± 0.06 nmol/mg | tissue β-hydroxybutyrate, diaphragm (Dysf-null mice; [2]): 26.5 ± 2.11 nmol/mg | tissue β-hydroxybutyrate, heart (Dysf-null mice; [2]): 11.9 ± 0.51 nmol/mg | tissue β-hydroxybutyrate, omental fat (Dysf-null mice; [2]): 30.2 ± 0.85 nmol/mg | tissue β-hydroxybutyrate, quadriceps (Dysf-null mice; [2]): 43.8 ± 2.23 nmol/mg

From US20220062299A1, “USE OF GLUCOCORTICOID STEROIDS IN PREVENTING AND TREATING CONDITIONS OF MUSCLE WASTING, AGING AND METABOLIC DISORDER” (NORTHWESTERN UNIVERSITY, priority 2018, published 2022)
